Among the data in US5516908A, “1,3-dihydro-2H-imidazo-[4,5-β]quinolin-2-one derivatives and intermediates” (Janssen Pharmaceutica N.V., priority 1995, dated 1996) are IC50 values, retold here.

The IC50 is the point on the concentration scale where inhibition reaches its midpoint.

Type in all cases: biochemical
One test has as its target T1, Canine heart PDE III (Canis lupus familiaris, UniProt A0A8I3NYE0).
T1 construct: canine and human heart phosphodiesterase PDE III; from tissue; host or cells: canine heart (muscle)
T1 sequence (A0A8I3NYE0 1-1135): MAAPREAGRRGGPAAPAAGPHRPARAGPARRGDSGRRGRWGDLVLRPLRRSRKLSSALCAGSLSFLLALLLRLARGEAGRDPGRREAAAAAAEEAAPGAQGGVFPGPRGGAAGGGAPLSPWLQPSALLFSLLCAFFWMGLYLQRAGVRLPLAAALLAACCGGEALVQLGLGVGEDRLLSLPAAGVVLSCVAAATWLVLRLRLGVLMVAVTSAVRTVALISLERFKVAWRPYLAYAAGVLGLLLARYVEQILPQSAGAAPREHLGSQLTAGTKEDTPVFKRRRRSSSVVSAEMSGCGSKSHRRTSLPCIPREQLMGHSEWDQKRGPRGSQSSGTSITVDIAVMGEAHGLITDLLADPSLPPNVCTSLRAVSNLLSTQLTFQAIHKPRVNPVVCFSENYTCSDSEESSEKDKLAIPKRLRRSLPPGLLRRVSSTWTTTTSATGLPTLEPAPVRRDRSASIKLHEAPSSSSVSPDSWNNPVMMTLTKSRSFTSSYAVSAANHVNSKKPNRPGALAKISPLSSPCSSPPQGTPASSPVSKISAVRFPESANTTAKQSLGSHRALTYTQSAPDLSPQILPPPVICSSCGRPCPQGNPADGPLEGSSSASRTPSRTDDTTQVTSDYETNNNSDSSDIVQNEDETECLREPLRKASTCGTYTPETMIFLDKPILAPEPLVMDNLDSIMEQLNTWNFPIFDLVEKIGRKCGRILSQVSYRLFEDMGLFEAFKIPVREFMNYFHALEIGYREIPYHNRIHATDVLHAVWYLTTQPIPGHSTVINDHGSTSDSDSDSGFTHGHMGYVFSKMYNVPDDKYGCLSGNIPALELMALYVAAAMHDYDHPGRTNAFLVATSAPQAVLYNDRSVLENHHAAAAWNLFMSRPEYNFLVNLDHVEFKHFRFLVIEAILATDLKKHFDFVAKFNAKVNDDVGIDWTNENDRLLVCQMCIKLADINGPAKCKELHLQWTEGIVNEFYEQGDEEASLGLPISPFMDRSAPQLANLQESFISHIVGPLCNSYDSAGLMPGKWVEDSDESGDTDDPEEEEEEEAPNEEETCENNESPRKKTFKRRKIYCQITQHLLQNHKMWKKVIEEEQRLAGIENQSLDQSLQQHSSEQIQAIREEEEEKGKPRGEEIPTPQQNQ
The test can be described thus: Inhibition of Phosphodiesterase Type III (PDE III), canine heart. The following applies: 1.2 μM 3H-cAMP, pH 7.1, 10 min at 37° C. As to the method:
(§1) The alleviating and/or curing effect of the instant compounds on allergic and atopic diseases was assessed by an in vitro assay system to detect an inhibiting effect on the phosphodiesterase type III in human and canine muscle cells and a similar inhibiting effect on the phosphodiesterase type IV in human mononuclear lymphocytes.
(§2) The incubation mixture (pH 7.1) (200 μl) contained 40 mM Tris, 3.75 mM 2-mercaptoethanol, 6 mM magnesium chloride, 1.2 μM ^3 H-cAMP (310 mCi/mmole) and the phosphodiesterase type III, the amount depending on the enzymatic activity.
(§3) When the effect of different compounds on phosphodiesterase activity was tested, the medium without cAMP was incubated with the compound(s) or its carrier (DMSO-1% final concentration) for 5 min. The enzymatic reaction was started by addition of ^3 H-cAMP and stopped 10 min later after transferring the tubes in a waterbath at 100° C. for 40 sec. After cooling to room temperature, alkaline phosphatase (0.25 μg/ml) was added and the mixture was left at room temperature for 20 min. The mixture was subsequently applied to a 1 ml DEAE-Sephadex A-25 column (pasteur pipet) and washed twice with 3 ml 20 mM Tris-HCl at pH 7.4. The ^3 H-labelled reaction products in the eluate were quantified by liquid scintillation counting.
(§4) The inhibiting effect of the present compounds on canine and human heart phosphodiesterase PDE III was measured at different concentrations of the instant compounds. The IC50 values were calculated graphically from the thus obtained inhibition values.

The target of a further test is T2, Human heart PDE III (Homo sapiens, UniProt Q14432).
T2 construct: canine and human heart phosphodiesterase PDE III; from tissue; host or cells: human heart (muscle)
The test can be described thus: Inhibition of Phosphodiesterase Type III (PDE III), human heart. The conditions noted are these: 1.2 μM 3H-cAMP, pH 7.1, 10 min at 37° C. On the procedure:
as §1, §2, §3, §4

For another test, the target named is Human MNL PDE IV. The test can be described thus: Inhibition of Phosphodiesterase Type IV From Human Mononuclear Lymphocytes (MNL). The conditions noted are these: human mononuclear lymphocyte PDE IV; in presence of 10^-4 M cGMP; 1.2 μM 3H-cAMP, pH 7.1, 10 min at 37° C. As to the method: as §1
Human blood was obtained from donors that were documented before to suffer from allergic or atopic disease. 35 ml of blood was obtained from the […] veins by venipuncture and collected in 5 ml 100 mM K2 EDTA pH 7.1. 4 ml of 0.6% dextran in saline was added and the mixture was left at room temperature for 30 min. The red blood cell free supernatant was collected, layered gently on a Lymphoprep solution and centrifuged at 750 g for 15 min at 18° C. The interfase was collected, diluted with a buffer containing […], 50 mM KCl and 100 mM HEPES at pH 7.4, and centrifuged at 900 g for 10 min at 10° C. The resulting pellet was resuspended in the same buffer.
The suspension of MNLs was adjusted to 1% Triton X100 and 0.3% Brij35 and frozen in liquid N2. After 3 freeze-thawn cycles, the suspension was homogenized at 4° C. in a Polytron PT3000 (Kinematica AG) homogenizer (PT-DA 3020/2 TS) at 8000 rpm for 5×10 sec, followed by sonication at 4° C. in a Branson sonifier 250 at a frequency output of 20000 Hz, working output 40 W for 10×30 sec. The homogenate was centrifuged at 10000 g for 10 min. The resulting supernatant was used as source for PDE IV activity. The incubation mixture (pH 7.1) (200 μl) contained 40 mM Tris, 3.75 mM 2-mercapto-ethanol, 6 mM magnesium chloride, 1.2 μM ^3 H-cAMP (310 mCi/mmole) and the phosphodiesterase type IV, the amount depending on the enzymatic activity. […] To block contaminating PDE III activity, PDE IV activity was measured in the presence of 10^-4 M cGMP.
as §3
The inhibiting effect of the present compounds on human mononuclear lymphocyte phosphodiesterase PDE IV was measured at different concentrations of the instant compounds. The IC50 values were calculated graphically from the thus obtained inhibition values.

T2 sequence (Q14432 whole entry): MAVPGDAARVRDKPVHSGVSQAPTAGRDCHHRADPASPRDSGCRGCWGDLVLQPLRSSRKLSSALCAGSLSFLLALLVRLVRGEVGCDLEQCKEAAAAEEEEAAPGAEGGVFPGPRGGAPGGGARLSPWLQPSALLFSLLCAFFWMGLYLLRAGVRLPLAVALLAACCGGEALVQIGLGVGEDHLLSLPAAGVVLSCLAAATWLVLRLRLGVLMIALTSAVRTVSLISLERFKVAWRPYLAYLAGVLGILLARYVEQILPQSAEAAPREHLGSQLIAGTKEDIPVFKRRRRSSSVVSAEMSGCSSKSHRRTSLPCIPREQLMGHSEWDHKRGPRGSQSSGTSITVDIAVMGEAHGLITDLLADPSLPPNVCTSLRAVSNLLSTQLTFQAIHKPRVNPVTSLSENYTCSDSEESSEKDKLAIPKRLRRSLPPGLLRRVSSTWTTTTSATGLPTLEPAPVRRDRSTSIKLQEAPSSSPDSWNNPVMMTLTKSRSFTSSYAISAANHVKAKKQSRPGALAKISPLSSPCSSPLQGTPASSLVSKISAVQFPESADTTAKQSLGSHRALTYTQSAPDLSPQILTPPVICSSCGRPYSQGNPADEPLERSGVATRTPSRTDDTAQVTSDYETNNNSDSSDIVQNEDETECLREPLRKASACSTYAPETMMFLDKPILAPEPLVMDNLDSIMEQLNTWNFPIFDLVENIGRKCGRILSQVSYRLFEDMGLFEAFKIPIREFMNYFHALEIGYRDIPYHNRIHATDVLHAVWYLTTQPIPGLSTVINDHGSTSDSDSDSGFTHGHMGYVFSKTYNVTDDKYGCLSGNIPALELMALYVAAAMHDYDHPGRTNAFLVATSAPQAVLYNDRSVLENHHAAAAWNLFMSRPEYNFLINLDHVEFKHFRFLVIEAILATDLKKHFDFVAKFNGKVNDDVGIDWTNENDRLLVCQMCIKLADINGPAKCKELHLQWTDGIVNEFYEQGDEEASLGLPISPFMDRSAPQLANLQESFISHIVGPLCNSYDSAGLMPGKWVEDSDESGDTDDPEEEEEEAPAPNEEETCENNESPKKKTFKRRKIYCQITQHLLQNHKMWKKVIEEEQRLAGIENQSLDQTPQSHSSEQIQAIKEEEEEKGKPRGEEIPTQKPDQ

Take `CCOC(=O)CCCCO/N=C(/c1cccnc1)c1ccc2nc3[nH]c(=O)[nH]c3cc2c1` [Compound 12]: the concentration for half-maximal inhibition (IC50) on Canine heart PDE III turned out to be 29 nM; against Human heart PDE III, 33 nM; on Human MNL PDE IV, 3600 nM.

For `O=C(c1ccccc1)c1ccc2nc3[nH]c(=O)[nH]c3cc2c1` [Compound 1, 7-benzoyl-1,3-dihydro-2H-imidazo[4,5-b]quinolin-2-one], the IC50 on Canine heart PDE III stood at 10 nM; at Human heart PDE III, 42 nM; at Human MNL PDE IV it was 5800 nM.

For `O=C(c1cccnc1)c1ccc2nc3[nH]c(=O)[nH]c3cc2c1` [Compound 5, 1,3-dihydro-7-(3-pyridinylcarbonyl-2H-imidazo[4,5-b]quinolin-2-one monohydrate], the figures for the IC50 at Canine heart PDE III and at Human heart PDE III were 42 nM and 120 nM, respectively.

For the compound `O=C(O)CCCCO/N=C(\c1cccnc1)c1ccc2nc3[nH]c(=O)[nH]c3cc2c1` [Compound 13, (Z)-5-[[[(2,3-dihydro-2-oxo-1H-imidazo[4,5-b]-quinolin-7-yl)(3-pyridinyl)methylene]amino]oxy]pentanoic acid], the IC50 against Canine heart PDE III was found to be 84 nM; on Human heart PDE III, 49 nM.

For `CN(C(=O)CO/N=C(/c1ccccc1)c1ccc2nc3[nH]c(=O)[nH]c3cc2c1)C1CCCCC1` [Compound 7], the half-inhibitory concentration (IC50) against Canine heart PDE III was 32 nM; against Human heart PDE III it was 27 nM; on Human MNL PDE IV, 2600 nM.

Regarding `COc1ccc(C(=O)c2ccc3nc4[nH]c(=O)[nH]c4cc3c2)cc1OC` [Compound 2, 7-(3,4-dimethoxybenzoyl)-1,3-dihydro-2H-imidazo[4,5-b]quinolin-2-one], the IC50 is 33 nM against Canine heart PDE III, 86 nM against Human heart PDE III and 4500 nM at Human MNL PDE IV.

Turning to `O=C(O)CCCCON=C(c1cccnc1)c1ccc2nc3[nH]c(=O)[nH]c3cc2c1` [Compound 14, (E+Z)-5-[[[(2,3-dihydro-2-oxo-1H-imidazo[4,5-b]quinolin-7-yl)(3-pyridinyl)methylene]amino]oxy]pentanoic acid monohydrate], the IC50 at Canine heart PDE III and on Human heart PDE III was 100 nM throughout.

Turning to `Cc1ccc(C(=O)c2ccc3nc4[nH]c(=O)[nH]c4cc3c2)cc1` [Compound 4, 1,3-dihydro-7-(4-methylbenzoyl)-2H-imidazo[4,5-b]quinolin-2-one], the IC50 at Canine heart PDE III was found to be 26 nM; against Human heart PDE III, 18 nM.

Consider `COc1cccc(C(=O)c2ccc3nc4[nH]c(=O)[nH]c4cc3c2)c1` [Compound 9], for which the IC50 on Canine heart PDE III was found to be 21 nM; against Human heart PDE III, 18 nM.

As to `O=C(c1ccc(F)cc1)c1ccc2nc3[nH]c(=O)[nH]c3cc2c1` [Compound 3, 7-(4-fluorobenzoyl)-1,3-dihydro-2H-imidazo[4,5-b]quinolin-2-one], the half-maximal inhibitory concentration (IC50) at Canine heart PDE III turned out to be 37 nM; against Human heart PDE III, 36 nM.

For `CCOC(=O)CCCCO/N=C(\c1cccnc1)c1ccc2nc3[nH]c(=O)[nH]c3cc2c1` [Compound 6], the concentration for half-maximal inhibition (IC50) is 30 nM against Canine heart PDE III, 44 nM against Human heart PDE III and 1700 nM at Human MNL PDE IV.

As to `CCOC(=O)CO/N=C/c1ccc2nc3[nH]c(=O)[nH]c3cc2c1` [Compound 11], the results for the IC50 against Canine heart PDE III and against Human heart PDE III were 26 nM and 39 nM, respectively.

As to `CN(C(=O)CO/N=C(\c1ccccc1)c1ccc2nc3[nH]c(=O)[nH]c3cc2c1)C1CCCCC1` [Compound 10, (E)-N-cyclohexyl-2-[[[(2,3-dihydro-2-oxo-1H-imidazo{4,5-b]quinolin-7-yl)phenylmethylene]amino]oxy]-N-methylacetamide], the IC50 against Canine heart PDE III was 14 nM; against Human heart PDE III, 17 nM; on Human MNL PDE IV, 490 nM.
